Experimental data published in the NIST ThermoML archive (doi:10.1021/je700261b).

Assay: xn = mol fraction of the nth substance listed
Conditions: Liquid

CCCCO [butan-1-ol] + O=C=O
Conditions	mass density [kg/m3]
333.08 K, 16957 kPa, x2 = 0.1842	803.2
333.08 K, 18103 kPa, x2 = 0.1842	804.27
333.08 K, 19053 kPa, x2 = 0.1842	805.14
333.08 K, 20044 kPa, x2 = 0.1842	806.03
333.08 K, 21090 kPa, x2 = 0.1842	807.01
333.08 K, 21974 kPa, x2 = 0.1842	807.82
333.08 K, 22960 kPa, x2 = 0.1842	808.7
333.08 K, 24014 kPa, x2 = 0.1842	809.64
333.08 K, 25045 kPa, x2 = 0.1842	810.58
342.85 K, 1014 kPa, x2 = 0.0251	772.92
342.85 K, 2013 kPa, x2 = 0.0251	773.93
342.85 K, 2982 kPa, x2 = 0.0251	774.9
342.85 K, 4039 kPa, x2 = 0.0251	775.94
342.85 K, 5057 kPa, x2 = 0.0251	776.91
342.85 K, 5993 kPa, x2 = 0.0251	777.79
342.85 K, 7067 kPa, x2 = 0.0251	778.78
342.85 K, 8025 kPa, x2 = 0.0251	779.69
342.85 K, 9013 kPa, x2 = 0.0251	780.6
342.85 K, 10012 kPa, x2 = 0.0251	781.51
342.85 K, 11010 kPa, x2 = 0.0251	782.43
342.85 K, 11969 kPa, x2 = 0.0251	783.27
342.85 K, 13080 kPa, x2 = 0.0251	784.23
342.85 K, 13925 kPa, x2 = 0.0251	784.95
342.85 K, 15055 kPa, x2 = 0.0251	785.93
342.85 K, 16002 kPa, x2 = 0.0251	786.72
342.85 K, 17016 kPa, x2 = 0.0251	787.57
342.85 K, 18007 kPa, x2 = 0.0251	788.39
342.85 K, 19019 kPa, x2 = 0.0251	789.22
342.85 K, 20027 kPa, x2 = 0.0251	790.06
342.85 K, 20996 kPa, x2 = 0.0251	790.82
342.85 K, 22019 kPa, x2 = 0.0251	791.65
342.85 K, 23034 kPa, x2 = 0.0251	792.46
342.85 K, 24052 kPa, x2 = 0.0251	793.28
342.85 K, 25090 kPa, x2 = 0.0251	794.07
342.87 K, 15510 kPa, x2 = 0.9698	598.32
342.87 K, 16022 kPa, x2 = 0.9698	613.97
342.87 K, 17033 kPa, x2 = 0.9698	640.58
342.87 K, 17988 kPa, x2 = 0.9698	661.78
342.87 K, 19001 kPa, x2 = 0.9698	681.25
342.87 K, 20036 kPa, x2 = 0.9698	698.56
342.87 K, 21044 kPa, x2 = 0.9698	713.53
342.87 K, 22014 kPa, x2 = 0.9698	726.53
342.87 K, 23003 kPa, x2 = 0.9698	738.6
342.87 K, 24019 kPa, x2 = 0.9698	749.89
342.87 K, 24944 kPa, x2 = 0.9698	759.52
342.88 K, 1975 kPa, x2 = 0.0857	776.2
342.88 K, 2955 kPa, x2 = 0.0857	777.28
342.88 K, 4033 kPa, x2 = 0.0857	778.42
342.88 K, 5015 kPa, x2 = 0.0857	779.45
342.88 K, 5957 kPa, x2 = 0.0857	780.4
342.88 K, 7027 kPa, x2 = 0.0857	781.49
342.88 K, 7999 kPa, x2 = 0.0857	782.5
342.88 K, 9007 kPa, x2 = 0.0857	783.51
342.88 K, 10003 kPa, x2 = 0.0857	784.47
342.88 K, 11007 kPa, x2 = 0.0857	785.43
342.88 K, 11951 kPa, x2 = 0.0857	786.34
342.88 K, 13010 kPa, x2 = 0.0857	787.34
342.88 K, 14012 kPa, x2 = 0.0857	788.24
342.88 K, 15065 kPa, x2 = 0.0857	789.2
342.88 K, 15994 kPa, x2 = 0.0857	790.07
342.88 K, 17007 kPa, x2 = 0.0857	790.98
342.88 K, 17999 kPa, x2 = 0.0857	791.83
342.88 K, 18990 kPa, x2 = 0.0857	792.72
342.88 K, 20029 kPa, x2 = 0.0857	793.58
342.88 K, 20993 kPa, x2 = 0.0857	794.43
342.88 K, 22004 kPa, x2 = 0.0857	795.26
342.88 K, 23039 kPa, x2 = 0.0857	796.17
342.88 K, 24019 kPa, x2 = 0.0857	796.97
342.88 K, 25064 kPa, x2 = 0.0857	797.88
342.92 K, 12062 kPa, x2 = 0.4972	795.68
342.92 K, 13090 kPa, x2 = 0.4972	797.59
342.92 K, 14017 kPa, x2 = 0.4972	799.27
342.92 K, 15047 kPa, x2 = 0.4972	801.1
342.92 K, 16026 kPa, x2 = 0.4972	802.79
342.92 K, 17041 kPa, x2 = 0.4972	804.51
342.92 K, 18053 kPa, x2 = 0.4972	806.18
342.92 K, 19028 kPa, x2 = 0.4972	807.77
342.92 K, 20046 kPa, x2 = 0.4972	809.4
342.92 K, 21062 kPa, x2 = 0.4972	810.98
342.92 K, 22043 kPa, x2 = 0.4972	812.48
342.92 K, 22996 kPa, x2 = 0.4972	813.92
342.92 K, 24003 kPa, x2 = 0.4972	815.43
342.92 K, 25073 kPa, x2 = 0.4972	816.99
342.94 K, 13074 kPa, x2 = 0.5965	795.03
342.94 K, 14051 kPa, x2 = 0.5965	797.49
342.94 K, 15068 kPa, x2 = 0.5965	799.99
342.94 K, 15189 kPa, x2 = 0.8663	716.88
342.94 K, 16052 kPa, x2 = 0.8663	728.37
342.94 K, 16064 kPa, x2 = 0.5965	802.35
342.94 K, 17059 kPa, x2 = 0.8663	740.13
342.94 K, 17076 kPa, x2 = 0.5965	804.68
342.94 K, 18027 kPa, x2 = 0.8663	749.98
342.94 K, 18056 kPa, x2 = 0.5965	806.85
342.94 K, 19037 kPa, x2 = 0.5965	808.99
342.94 K, 19050 kPa, x2 = 0.8663	759.3
342.94 K, 20036 kPa, x2 = 0.8663	767.54
342.94 K, 20067 kPa, x2 = 0.5965	811.18
342.94 K, 21031 kPa, x2 = 0.5965	813.15
342.94 K, 21038 kPa, x2 = 0.8663	775.36
342.94 K, 22050 kPa, x2 = 0.5965	815.2
342.94 K, 22085 kPa, x2 = 0.8663	782.79
342.94 K, 23030 kPa, x2 = 0.5965	817.14
342.94 K, 23032 kPa, x2 = 0.8663	789.07
342.94 K, 24031 kPa, x2 = 0.5965	819.08
342.94 K, 24045 kPa, x2 = 0.8663	795.41
342.94 K, 25028 kPa, x2 = 0.5965	820.94
342.94 K, 25042 kPa, x2 = 0.8663	801.31
343 K, 6024 kPa, x2 = 0.1842	782.23
343 K, 7050 kPa, x2 = 0.1842	783.43
343 K, 8037 kPa, x2 = 0.1842	784.59
343 K, 9052 kPa, x2 = 0.1842	785.73
343 K, 10057 kPa, x2 = 0.1842	786.87
343 K, 11053 kPa, x2 = 0.1842	787.96
343 K, 12027 kPa, x2 = 0.1842	789.03
343 K, 13076 kPa, x2 = 0.1842	790.12
343 K, 14026 kPa, x2 = 0.1842	791.16
343 K, 15081 kPa, x2 = 0.1842	792.24
343 K, 16028 kPa, x2 = 0.1842	793.21
343 K, 17031 kPa, x2 = 0.1842	794.24
343 K, 18020 kPa, x2 = 0.1842	795.22
343 K, 19009 kPa, x2 = 0.1842	796.2
343 K, 20030 kPa, x2 = 0.1842	797.2
343 K, 21066 kPa, x2 = 0.1842	798.2
343 K, 21978 kPa, x2 = 0.1842	799.07
343 K, 23062 kPa, x2 = 0.1842	800.09
343 K, 24031 kPa, x2 = 0.1842	801.02
343 K, 25044 kPa, x2 = 0.1842	801.97
352.77 K, 1022 kPa, x2 = 0.0251	763.98
352.77 K, 2029 kPa, x2 = 0.0251	765.11
352.77 K, 3006 kPa, x2 = 0.0251	766.15
352.77 K, 4015 kPa, x2 = 0.0251	767.17
352.77 K, 5041 kPa, x2 = 0.0251	768.25
352.77 K, 5988 kPa, x2 = 0.0251	769.24
352.77 K, 7026 kPa, x2 = 0.0251	770.25
352.77 K, 8000 kPa, x2 = 0.0251	771.2
352.77 K, 9059 kPa, x2 = 0.0251	772.24
352.77 K, 10017 kPa, x2 = 0.0251	773.14
352.77 K, 11016 kPa, x2 = 0.0251	774.17
352.77 K, 12004 kPa, x2 = 0.0251	775.04
352.77 K, 13003 kPa, x2 = 0.0251	775.95
352.77 K, 14039 kPa, x2 = 0.0251	776.91
352.77 K, 14988 kPa, x2 = 0.0251	777.75
352.77 K, 16084 kPa, x2 = 0.0251	778.74
352.77 K, 17004 kPa, x2 = 0.0251	779.54
352.77 K, 18003 kPa, x2 = 0.0251	780.41
352.77 K, 19004 kPa, x2 = 0.0251	781.28
352.77 K, 20007 kPa, x2 = 0.0251	782.15
352.77 K, 21029 kPa, x2 = 0.0251	783.01
352.77 K, 22044 kPa, x2 = 0.0251	783.86
352.77 K, 22995 kPa, x2 = 0.0251	784.65
352.77 K, 24056 kPa, x2 = 0.0251	785.52
352.77 K, 25098 kPa, x2 = 0.0251	786.41
352.79 K, 18068 kPa, x2 = 0.9698	596.97
352.79 K, 18999 kPa, x2 = 0.9698	619.03
352.79 K, 20007 kPa, x2 = 0.9698	639.88
352.79 K, 21053 kPa, x2 = 0.9698	659.01
352.79 K, 22011 kPa, x2 = 0.9698	674.59
352.79 K, 23058 kPa, x2 = 0.9698	690
352.79 K, 24106 kPa, x2 = 0.9698	703.93
352.79 K, 25050 kPa, x2 = 0.9698	715.49
352.82 K, 6041 kPa, x2 = 0.1842	772.14
352.82 K, 7041 kPa, x2 = 0.1842	773.4
352.82 K, 8024 kPa, x2 = 0.1842	774.6
352.82 K, 9042 kPa, x2 = 0.1842	775.87
352.82 K, 10044 kPa, x2 = 0.1842	777.07
352.82 K, 11026 kPa, x2 = 0.1842	778.23
352.82 K, 12073 kPa, x2 = 0.1842	779.44
